Measurements from patent publication US5182284A, “Piperazine compounds, processes for preparation thereof and medical uses thereof” (Taiho Pharmaceutical Co., Ltd., priority 1990, dated 1993).

Assays:
Cyclooxygenase = Cyclooxygenase inhibitory effect; type: biochemical; settings: seminal vesicular gland microsomes, 14C-arachidonic acid, prostaglandin E2 formation
Description: (1) Cyclooxygenase inhibitory effect
The assay was carried out by the method described in Biochem. Pharmacol. 25, 2479-2484 (1976).
^14 C-Arachidonic acid was reacted with seminal vesicular gland microsomes and the test drugs at various concentrations over a predetermined period of time and the obtained prostaglandin E2 was separated by thin-layer chromatography. The radioactivity was determined by liquid scintillation counter. The IC50 values were calculated by the comparison with the radioactivity of the control.

5-Lipoxygenase = target: T1, 5-Lipoxygenase (Cavia porcellus, UniProt A0A286X958); test: 5-Lipoxygenase inhibitory effect; type: biochemical; settings: cytosol fraction of guinea pig polymorphonuclear leukocytes, 14C-arachidonic acid, 5-hydroxyeicosatetraenoic acid formation
T1 construct: the polymorphonuclear leukocytes were collected and the cytosol fraction was obtained as an enzyme source; endogenous in cells; host or cells: guinea pig peritoneal polymorphonuclear leukocytes (casein-elicited), cytosol fraction
T1 sequence (A0A286X958 1-674): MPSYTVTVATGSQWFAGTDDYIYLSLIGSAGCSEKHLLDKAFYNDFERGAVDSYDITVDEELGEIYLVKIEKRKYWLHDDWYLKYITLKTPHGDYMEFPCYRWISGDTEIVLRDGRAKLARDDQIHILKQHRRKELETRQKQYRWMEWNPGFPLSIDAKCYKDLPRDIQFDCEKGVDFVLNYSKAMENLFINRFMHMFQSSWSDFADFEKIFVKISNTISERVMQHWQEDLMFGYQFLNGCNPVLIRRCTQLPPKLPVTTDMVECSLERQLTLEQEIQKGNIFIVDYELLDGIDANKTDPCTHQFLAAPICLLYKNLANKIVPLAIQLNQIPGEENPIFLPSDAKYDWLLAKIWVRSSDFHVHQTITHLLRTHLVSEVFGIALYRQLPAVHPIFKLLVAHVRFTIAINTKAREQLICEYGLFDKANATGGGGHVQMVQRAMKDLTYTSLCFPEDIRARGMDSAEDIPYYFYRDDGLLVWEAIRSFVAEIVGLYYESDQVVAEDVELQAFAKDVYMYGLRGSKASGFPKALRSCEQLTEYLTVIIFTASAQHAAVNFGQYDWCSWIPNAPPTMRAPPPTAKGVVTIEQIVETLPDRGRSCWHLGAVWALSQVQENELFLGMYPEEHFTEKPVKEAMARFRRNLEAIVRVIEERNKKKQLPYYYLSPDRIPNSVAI
Description: 2) 5-Lipoxygenase inhibitory effect
The assay was carried out by the method described in Journal of Biological Chemistry 258, 5754-5758 (1983) Casein was injected into the abdominal cavity of a guinea pig, and the polymorphonuclear leukocytes were collected and the cytosol fraction was obtained as an enzyme source. ^14 C-Arachidonic acid was reacted with the enzyme and the test drugs at various concentrations over a predetermined period of time. The obtained 5-hydroxyeicosatetraenoic acid was separated by thin-layer chromatography and the radioactivity was determined. By the comparison with the radioactivity of the control, the IC50 values were calculated.

[1] = system: contraction of respiratory tract; test: Effect on allergic asthma (airway resistance after ovalbumin challenge in passively sensitized guinea pigs); type: in vivo, guinea pig (Hartley); settings: mean ± standard error, oral, 100 mg in 5 ml, 5 ml/kg, 2 hours before challenge, ovalbumin i.v., diphenhydramine, propranolol and indomethacin pretreatment
Description: 3. Effect on allergic asthma
To a guinea pig (Hartley, 350 to 400 g, male) was administered 0.5 ml/kg of a guinea pig anti-ovalbumin IgE serum for passive sensitization. Two days later, the guinea pig was anesthetized with pentobarbital (70 mg/kg) and a cannula and a catheter were each inserted into the trachea and a carotid artery, respectively. Further, the spontaneous respiration of the guinea pig was stopped with use of 0.5 mg/kg of pancuronium bromide and artificial respiration was conducted (100% oxygen at 1 kgf/cm^2, respirator: EVM-50A (manufactured by AIKA Co., Ltd.), predetermined flow rate of oxygen: 0.45 l/min, number of respiration: 40 times/min, time for inspiration: 0.25 sec/respiration). The measurement for contraction of respiratory tract was carried out by modified Konzett and Rossler method. A 100 mg quantity of the compound of the present invention was suspended in 5 ml of a 5% Tween-80-phosphate buffered physiological saline solution (pH 6.8). Two hours before the challenge, the test drug was orally administered in a volume of 5 ml/kg. The same quantity of the solvent alone was orally administered to a control group. Further, 2.5 mg/kg of diphenhydramine, 0.05 mg/kg of propranolol and 5 mg/kg of indomethacin were intravenously administered 5 minutes before the challenge. A 22.5 to 35 μg/kg quantity of ovalbumin was intravenously administered and the contraction of respiratory tract was measured as airway resistance with use of a pressure transducer. The maximum airway resistance was taken as 100%, and the change in the airway resistance caused a predetermined period of time after the challenge was shown as the ratio relative to the maximum airway resistance.

## O=C(Cc1ccc(O)c(O)c1)OC(CN1CCN(CCCCCCCCCCO)CC1)c1ccccc1 (stereo not drawn) [Compound 8]
Cyclooxygenase
  IC50: 9.9 µM
5-Lipoxygenase
  IC50: 320 nM

## O=C(/C=C/c1ccc(O)c(O)c1)OC(CN1CCN(CCCCCCCCCCO)CC1)c1ccc(Cl)cc1 (stereo not drawn) [Compound 15]
Cyclooxygenase
  IC50: 3.4 µM
5-Lipoxygenase
  IC50: 90 nM

## CCCCCCCCCCN1CCN(CC(OC(=O)/C=C/c2ccc(O)c(O)c2)c2ccccc2)CC1 (stereo not drawn) [Compound 19]
Cyclooxygenase
  IC50: 4.3 µM
5-Lipoxygenase
  IC50: 80 nM

## CCCCCCCCCCN1CCN(C(=O)CNC(=O)/C=C/c2ccc(O)c(O)c2)CC1 [Compound 23]
Cyclooxygenase
  IC50: 4.2 µM
5-Lipoxygenase
  IC50: 40 nM

## CCCCCCCCCCN1CCN(C(=O)/C=C/c2ccc(O)c(O)c2)CC1 [Compound 35]
Cyclooxygenase
  IC50: 8.4 µM
5-Lipoxygenase
  IC50: 40 nM

## CCCCCCCCN1CCN(C(=O)/C=C/c2ccc(O)c(O)c2)CC1 [Compound 36]
Cyclooxygenase
  IC50: 2.9 µM
5-Lipoxygenase
  IC50: 120 nM

## CCCCCCCCCCN1CCN(C(=O)CNC(=O)/C=C/c2ccc(OC(=O)OCC)c(OC(=O)OCC)c2)CC1 [Compound 40]
[1]; 3 minutes after challenge, control 41.9 ± 7.0
  Airway resistance (ratio relative to the maximum airway resistance): 22.6 ± 3.7%
[1]; 8 minutes after challenge, control 79.5 ± 5.4
  Airway resistance (ratio relative to the maximum airway resistance): 45.6 ± 11.0%
[1]; 16 minutes after challenge, control 75.3 ± 5.8
  Airway resistance (ratio relative to the maximum airway resistance): 40.9 ± 11.3%
